The values that follow come from patent publication EP0452067A2, “Oligosaccharide compounds and preparation thereof” (GENZYME CORPORATION, priority 1990, dated 1991).

For one series, the system named is α-amylase. Kind of series: Determination of kinetic and binding values of α-amylase substrates. The settings on record: for Km: 50 mM PIPES pH 7.0, 50 mM NaCl, 5 mM CaCl₂, glucoamylase and maltase, 27°C, corrected for contaminating unblocked substrate. In kind it is biochemical. As to the method: All reactions were carried out in 50 mM PIPES buffer (pH 7.0) containing 50 mM NaCl, 5 mM CaCl₂, 10 units glucoamylase and 25 units maltase at 27°C. Each substrate concentration was run in duplicate and at least eight concentrations were examined for each substrate. Data from the reaction progress curves were fit to the Michaelis-Menten equation using Marquardt analysis. The Km values were corrected for contaminating unblocked substrate. The values V and K for the G₇ substrates are the average of two experiments. The error in the kinetic parameters from each experiment was less than 5% from the average reported.

In series [1] the test system is pancreatic and salivary α-amylase. Kind of series: Cleavage pattern, both amylases. Format: biochemical. The settings on record: range over pancreatic and salivary α-amylase.
In a further series the target is T1, Pancreatic Amylase (Homo sapiens, UniProt P04746).
T1 sequence (P04746 16-511): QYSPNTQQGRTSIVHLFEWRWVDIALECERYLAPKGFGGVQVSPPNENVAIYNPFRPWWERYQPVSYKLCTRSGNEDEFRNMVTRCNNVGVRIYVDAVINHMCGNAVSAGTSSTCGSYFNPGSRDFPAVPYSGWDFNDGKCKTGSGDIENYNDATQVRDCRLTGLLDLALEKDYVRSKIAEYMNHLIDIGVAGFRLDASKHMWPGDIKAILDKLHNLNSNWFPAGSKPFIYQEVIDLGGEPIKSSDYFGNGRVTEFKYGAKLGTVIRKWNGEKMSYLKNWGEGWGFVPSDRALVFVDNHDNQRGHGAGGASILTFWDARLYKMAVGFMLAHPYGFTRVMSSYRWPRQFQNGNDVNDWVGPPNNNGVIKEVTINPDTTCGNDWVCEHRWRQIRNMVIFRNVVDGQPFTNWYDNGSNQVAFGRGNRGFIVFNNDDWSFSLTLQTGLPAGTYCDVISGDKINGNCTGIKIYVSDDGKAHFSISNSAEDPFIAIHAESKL
Kind of series: Cleavage pattern of substrates on hydrolysis with pancreatic amylase.

As to `CC(C)(C)[Si](C)(C)OC[C@H]1O[C@H](O[C@H]2[C@H](O)[C@@H](O)[C@@H](O[C@H]3[C@H](O)[C@@H](O)[C@@H](O[C@H]4[C@H](O)[C@@H](O)[C@@H](O[C@H]5[C@H](O)[C@@H](O)[C@@H](O[C@H]6[C@H](O)[C@@H](O)[C@@H](O[C@H]7[C@H](O)[C@@H](O)[C@@H](Oc8ccc([N+](=O)[O-])cc8)O[C@@H]7CO)O[C@@H]6CO)O[C@@H]5CO)O[C@@H]4CO)O[C@@H]3CO)O[C@@H]2CO)[C@H](O)[C@@H](O)[C@@H]1O` [Substrate 1, 6-0-t-butyldimethylsilyl-4-nitrophenyl-α-D-maltoheptaoside], in the series with α-amylase (relative to Bz-G₇-PNP), the “Vmax, faster than the Bz-G₇-PNP” value came out at 46%. Besides, the “cleaved between glucoses 3 and 4” value in series [1] was 66 - 67%. Further, at Pancreatic Amylase, the “Cleavage Position (% of total) G 1/2” value is recorded as 1.1 % of total, the “Cleavage Position (% of total) G 2/3” value was 13.3 % of total, the “Cleavage Position (% of total) G 3/4” value is listed as 65.6 % of total and the “Cleavage Position (% of total) G 4/5” value was 19.9 % of total. Besides, the “Total Hydrolysis (%)” value at Pancreatic Amylase amounted to 69.9%.
Consider `O=[N+]([O-])c1ccc(O[C@H]2O[C@H](CO)[C@@H](O[C@H]3O[C@H](CO)[C@@H](O[C@H]4O[C@H](CO)[C@@H](O[C@H]5O[C@H](CO)[C@@H](O[C@H]6O[C@H](CO)[C@@H](O[C@H]7O[C@H](CO)[C@@H](O[C@H]8O[C@@H]9COC(c%10ccccc%10)O[C@H]9[C@H](O)[C@H]8O)[C@H](O)[C@H]7O)[C@H](O)[C@H]6O)[C@H](O)[C@H]5O)[C@H](O)[C@H]4O)[C@H](O)[C@H]3O)[C@H](O)[C@H]2O)cc1` (stereo partly drawn) [Substrate 2, 4,6-0-benzylidene-4-nitrophenyl-α-D-maltoheptaoside], for which, in the series on α-amylase, the Km is 92 µM. The “cleaved between glucoses 2 and 3” value in series [1] is given as 63 - 74%. For the same molecule, on Pancreatic Amylase, the “Cleavage Position (% of total) G 1/2” value was 4.0 % of total, the “Cleavage Position (% of total) G 2/3” value is on record as 63.1 % of total, the “Cleavage Position (% of total) G 3/4” value is given as 18.9 % of total and the “Cleavage Position (% of total) G 5/6” value was 13.6 % of total. The “Total Hydrolysis (%)” value on Pancreatic Amylase was determined as 15.1%.
`CC(C)(C)[Si](C)(C)OC[C@H]1O[C@H](O[C@H]2[C@H](O)[C@@H](O)[C@@H](O[C@H]3[C@H](O)[C@@H](O)[C@@H](O[C@H]4[C@H](O)[C@@H](O)[C@@H](O[C@H]5[C@H](O)[C@@H](O)[C@@H](Oc6ccc([N+](=O)[O-])cc6)O[C@@H]5CO)O[C@@H]4CO)O[C@@H]3CO)O[C@@H]2CO)[C@H](O)[C@@H](O)[C@@H]1O` [Substrate 3, 6-0-t-butyldimethylsilyl-4-nitrophenyl-α-D-maltopentaoside]: the Km with α-amylase came out at 87 µM. Also, the “V/K greater than that of the Bz-G₅-PNP” value in the series on α-amylase (relative to Bz-G₅-PNP) is listed as 19%. Further, in series [1], the “cleaved between glucose units 1-2” value was 40 - 60%; the “cleaved between glucoses 2 and 3” value is recorded as 40 - 60%. For the same molecule, on Pancreatic Amylase, the “Cleavage Position (% of total) G 1/2” value is given as 59.4 % of total, the “Cleavage Position (% of total) G 2/3” value is 40.6 % of total and the “Total Hydrolysis (%)” value was 31.6%.
`O=[N+]([O-])c1ccc(O[C@H]2O[C@H](CO)[C@@H](O[C@H]3O[C@H](CO)[C@@H](O[C@H]4O[C@H](CO)[C@@H](O[C@H]5O[C@H](CO)[C@@H](O[C@H]6O[C@@H]7COC(c8ccccc8)O[C@H]7[C@H](O)[C@H]6O)[C@H](O)[C@H]5O)[C@H](O)[C@H]4O)[C@H](O)[C@H]3O)[C@H](O)[C@H]2O)cc1` (stereo partly drawn) [Substrate 4, 4,6-0-benzylidene-4-nitrophenyl-α-D-maltopentaoside]: the Km in the series on α-amylase amounted to 183 µM. Further, the “cleaved between glucoses 3 and 4” value in series [1] was 78 - 84%. Moreover, at Pancreatic Amylase, the “Cleavage Position (% of total) G 1/2” value is recorded as 2.5 % of total, the “Cleavage Position (% of total) G 2/3” value is on record as 19.4 % of total, the “Cleavage Position (% of total) G 3/4” value was 78.1 % of total and the “Total Hydrolysis (%)” value came to 42.9%.
